Laboratory results from ChEMBL document CHEMBL4433230, “Revisiting microtubule targeting agents: α-Tubulin and the pironetin binding site as unexplored targets for cancer therapeutics” (Bioorg Med Chem Lett, 2019).

Key:
A549 = assay: Cytotoxicity against human A549 cells assessed as reduction in growth after 4 days by HCS assay; assay type: functional; conditions: A549, 96 h
DC3F = assay: Cytotoxicity against hamster DC-3F cells assessed as reduction in growth after 4 days by HCS assay; assay type: functional; conditions: Cricetulus griseus, 96 h
EL4 = assay: Cytotoxicity against C57BL/6 mouse EL4 cells assessed as reduction in growth after 3 days; assay type: functional; conditions: C57BL/6, EL4, 72 h
NCI-H69 = assay: Cytotoxicity against human H69 cells assessed as reduction in growth after 7 days by MTT assay; assay type: functional; conditions: NCI-H69, 168 h
[1] = Cytotoxicity against human H69/Txl cells assessed as reduction in growth after 7 days by MTT assay; assay type: functional; conditions: 168 h
[2] = Cytotoxicity against human H69/VDS cells assessed as reduction in growth after 7 days by MTT assay; assay type: functional; conditions: 168 h
[3] = Toxicity in CDF1-SLC mouse injected with mouse P388 cells assessed as change in body weight at 0.78 mg/kg, ip treated for 5 days and measured on day 1 and 10 (reference value: 5.3g); assay type: organism-based; conditions: in vivo, 120 h
HeLa = assay: Cytotoxicity against human HeLa cells assessed as reduction in growth; assay type: functional
HL-60 = assay: Cytotoxicity against human HL60 cells assessed as reduction in growth after 24 hrs by MTT assay; assay type: functional; conditions: HL-60, 24 h
[4] = Cytotoxicity against rat KNRK cells assessed as reduction in growth; assay type: functional
K562 = assay: Cytotoxicity against human K562 cells assessed as reduction in growth after 4 days by MTT assay; assay type: functional; conditions: K562, 96 h
K562/Adr = assay: Cytotoxicity against human K562/ADR cells assessed as reduction in growth after 4 days by MTT assay; assay type: functional; conditions: 96 h
MCF7 = assay: Cytotoxicity against human MCF7 cells assessed as reduction in growth after 3 days by MTT assay; assay type: functional; conditions: MCF7, 72 h
MDA-MB-231 = assay: Cytotoxicity against human MDA-MB-231 cells assessed as reduction in growth after 4 days by HCS assay; assay type: functional; conditions: MDA-MB-231, 96 h
P388 [5] = assay: Cytotoxicity against mouse P388 cells assessed as reduction in growth after 24 hrs by MTT assay; assay type: functional; conditions: P388, 24 h
T98G = assay: Cytotoxicity against human T98G cells assessed as reduction in growth after 4 days by MTS assay; assay type: functional; conditions: 96 h
[6] = Cytotoxicity against hamster VCRd5L cells assessed as reduction in growth after 4 days by HCS assay; assay type: functional; conditions: Cricetulus griseus, 96 h
Mus musculus = assay: Immunosuppressive activity in […] mouse injected with C57BL/6 mouse EL4 cells assessed as cytotoxic T cells generation by measuring specific lysis level at 5 mg/kg, ip treated for 2 to 15 days and measured on day 16 by gamma scintillation counter method (reference value: 18.6 +/- 4.15%); assay type: functional
[7] = Toxicity in CDF1-SLC mouse injected with mouse P388 cells assessed as change in body weight at 1.56 mg/kg, ip treated for 5 days and measured on day 1 and 10 (reference value: 5.3g); assay type: organism-based; conditions: in vivo, 120 h
[8] = Toxicity in CDF1-SLC mouse injected with mouse P388 cells assessed as change in body weight at 3.13 mg/kg, ip treated for 5 days and measured on day 1 and 10 (reference value: 5.3g); assay type: organism-based; conditions: in vivo, 120 h
[9] = Toxicity in CDF1-SLC mouse injected with mouse P388 cells assessed as change in body weight at 6.25 mg/kg, ip treated for 5 days and measured on day 1 and 10 (reference value: 5.3g); assay type: organism-based; conditions: in vivo, 120 h
P388 [10] = assay: Antitumor activity in CDF1-SLC mouse injected with mouse P388 cells assessed as mean survival time at 0.78 mg/kg, ip treated for 5 days (reference value: 11.2 +/- 0.84 days); assay type: functional
P388 [11] = assay: Antitumor activity in CDF1-SLC mouse injected with mouse P388 cells assessed as mean survival time at 1.56 mg/kg, ip treated for 5 days (reference value: 11.2 +/- 0.84 days); assay type: functional
P388 [12] = assay: Antitumor activity in CDF1-SLC mouse injected with mouse P388 cells assessed as mean survival time at 3.13 mg/kg, ip treated for 5 days (reference value: 11.2 +/- 0.84 days); assay type: functional
P388 [13] = assay: Antitumor activity in CDF1-SLC mouse injected with mouse P388 cells assessed as mean survival time at 6.25 mg/kg, ip treated for 5 days (reference value: 11.2 +/- 0.84 days); assay type: functional

`C/C=C/C[C@H](C)[C@@H](OC)[C@@H](C)[C@H](O)C[C@H]1OC(=O)C=C[C@H]1CC` [PIRONETIN] showed a GI50 (A549) of 7.5 nM, a GI50 (DC3F) of 9.5 nM and a GI50 (EL4) of 15 nM. It also gave a GI50 (NCI-H69) of 17.5 nM, a GI50 [1] of 11.5 nM and a GI50 [2] of 20.3 nM. It also gave an Activity [3] of 3.7 g, a GI50 (HeLa) of 30 nM and a GI50 (HL-60) of 20 nM. For the same compound, the GI50 [4] was 30 nM, the GI50 (K562) was 17.3 nM and the GI50 (K562/Adr) was 16 nM. For the same compound, the GI50 (MCF7) was 5 nM, the GI50 (MDA-MB-231) was 4.6 nM and the GI50 (P388 [5]) was 100 nM. The GI50 (T98G) was 7.5 nM, the GI50 [6] was 31 nM and the Activity (Mus musculus) was 7.4%. For the same compound, the Activity [7] was 0.5 g, the Activity [8] was -0.1 g and the Activity [9] was -2.6 g. For the same compound, the MST (P388 [10]) was 11.2 days, the MST (P388 [11]) was 11.7 days and the MST (P388 [12]) was 13.3 days. The MST (P388 [13]) was 14.3 days.
